These results are taken from patent publication US11717477B2, “Vaginal systemic drug delivery” (LiGalli B.V., priority 2018, dated 2023).

“And” between values parts separate entries of the source, which are not always exact repeats. Identical values can stand only once. Counter-ions that a name gives are not always drawn. Like-named read-outs stand apart in the source and are kept apart here. Where only a bound is given, the exact number is not on record here.

A short description of one data set: in vivo. As to conditions: female, Beagle, dog.
The conditions of data set [1]: cited from earlier work.
The conditions of data set [2]: cited from earlier work. The source holds these as a separate data set.
For data set [3] the following is noted: physiological release of oxytocin; cited from earlier work.
[4] abbreviates: 5 min after first vaginal dose, individual dogs.
The mark [5] stands for this setting: 10 min after first vaginal dose, individual dogs.
[6] abbreviates: 20 min after first vaginal dose, individual dogs.
The mark [7] stands for this setting: 30 min after first vaginal dose, individual dogs.
Setting [8] is: 60 min after first vaginal dose, individual dogs.
The mark [9] stands for this setting: 135 min after first dose (second vaginal dose at 125 min), individual dogs.
Setting [10] is: 155 min after first dose (second vaginal dose at 125 min), individual dogs.
[11] abbreviates: 185 min after first dose (second vaginal dose at 125 min), individual dogs.
[12] abbreviates: Dog, Lorazepam 0.8 mg (1st), vaginal, present study.
Setting [13] is: vaginal administration, Beagle dogs, two animals per compound.
Where [14] appears, read: 0.8 mg, Lorazepam 0.8 mg (1st), vaginal, present study.
Where [15] appears, read: 0.8 mg, Lorazepam 0.8 mg (2nd), vaginal, present study.
[16] abbreviates: Human, Lorazepam 2.0 mg, intramuscular, Wermeling.
The mark [17] stands for this setting: Human, Lorazepam 2.0 mg, intravenous, Wermeling.
Setting [18] is: Human, Lorazepam 2.0 mg, nasal, Wermeling.
Where [19] appears, read: Human, Lorazepam 2.0 mg, oral, Blin.
The mark [20] stands for this setting: Human, Nicotine 2.0 mg, intrapulmonary, Russell.
Where [21] appears, read: Human, Nicotine 4.0 mg, oral (gum), Russell.
The mark [22] stands for this setting: Dog, 2.5 mg/24 h, vaginal (ring), WO2011163358.
Setting [23] is: Dog, 6.0 mg/24 h, vaginal (ring), WO2011163358.
Where [24] appears, read: Dog, 10 mg/24 h, oral, WO2011163358.
Where [25] appears, read: Human, dose 5.0, dermal (patch), Kennelly.
The mark [26] stands for this setting: Human, dose 5.0, oral (ext. rel.), Kennelly.
The mark [27] stands for this setting: Human, dose 5.0, oral, Kennelly.
The mark [28] stands for this setting: Human, dose 100, dermal (gel), Kennelly.

The Tmax is the time from dosing to the highest level. As a reminder, the Cmax is the peak of the concentration-time curve. Turning to `CC(C)C[C@H](NC(=O)CNC(=O)[C@H](Cc1ccc(O)cc1)NC(=O)[C@H](CO)NC(=O)[C@H](Cc1c[nH]c2ccccc12)NC(=O)[C@H](Cc1cnc[nH]1)NC(=O)[C@@H]1CCC(=O)N1)C(=O)N[C@@H](CCCNC(=N)N)C(=O)N1CCC[C@H]1C(=O)NCC(N)=O` [GnRH, Gonadotropin-releasing hormone], where the note is “dog, in vivo”, the Plasma concentration result is given as “<LLOQ” and the “Time until plasma levels fall below LLOQ / return to baseline” value was at most 60 min. The time of peak concentration (Tmax) (female, Beagle, dog, in vivo, 0.5 mg) amounted to 5 min. For the same compound, the time to peak (Tmax) in the data set “in vivo” (0.5 mg) is 10 min. Further, in “in vivo” (50 uL, Plasma concentration), the level at 20 min stood at 0.41 ng/mL, the level at 0.5 h was found to be 0.2 ng/mL, the level at 2.25 h was found to be 0.71 ng/mL and the level at 245 min worked out at 0.19 ng/mL. Moreover, in the data set “in vivo”, the Tmax was at most 5 min. In addition, in data set [1] (human, in vivo, inhaled or intranasal, 0.8 mg), the Cmax is 0.35 ng/mL. Moreover, the Cmax in data set [1] (human, in vivo) was 0.002 ng/mL.
On to `O=C1Nc2ccc(Cl)cc2C(c2ccccc2Cl)=NC1O` (stereo not drawn) [Lorazepam], for which the Plasma concentration by setting is: under setting [4], 1.55 ng/mL and 3.93 ng/mL; under setting [5], 2.65 ng/mL and 3.47 ng/mL; under setting [6], 2.23 ng/mL and 4.25 ng/mL; under setting [7], 1.49 ng/mL and 3.28 ng/mL; under setting [8], 0.38 ng/mL and 0.99 ng/mL; under setting [9], 7.65 ng/mL and 7.13 ng/mL. Besides, the Plasma concentration is 4.96 ng/mL and 6.16 ng/mL under setting [10]; 1.89 ng/mL and 3.32 ng/mL under setting [11]; “<LLOQ” (Pre-dose, individual dogs). Also, the Cmax under setting [12] was 2.8 ng/mL; the Cmax (Dog, Lorazepam 0.8 mg (2nd), vaginal, present study) came out at 7.0 ng/mL; the peak level in “in vivo” (setting [14]) (Cmax) was 4 ng/mL; the maximum concentration (Cmax) in “in vivo” (setting [15]) came to 7.8 ng/mL; the Cmax in data set [1] (setting [16]) is recorded as 22.6 ng/mL; the Cmax in data set [1] (setting [17]) is recorded as 47.6 ng/mL. Besides, the Cmax in data set [1] (setting [18]) and in data set [1] (setting [19]) was 33.4 ng/mL throughout. Further, the Tmax under setting [12] was found to be 10 min; the Tmax under setting [13] amounted to 20 min; the Tmax in the data set “in vivo” (setting [14]) is 5 min; the Tmax in “in vivo” (setting [15]) is 10 min; the Tmax in “in vivo” (setting [13]) was 10 min; the Tmax in data set [1] (setting [16]) is 180 min. Moreover, the Tmax in data set [1] (setting [17]) was 6 min; in data set [1] (setting [18]) it was 55 min; in data set [1] (setting [19]) it was 55 min. The “Time until plasma levels fall below LLOQ / return to baseline” value (after vaginal administration, Beagle dogs) was at most 120 min.
Regarding `CN1CCCC1c1cccnc1` (stereo not drawn) [Nicotine], for the setting “dog, in vivo”, the “Cmax / plasma concentration of one animal relative to the other animal” value is “more than 4 times”. Moreover, the “Time until plasma levels fall below LLOQ / return to baseline” value (female, Beagle, dog, in vivo) was at most 120 min. Also, the time to peak (Tmax) (female, Beagle, dog, in vivo) stood at 10 min; the Tmax (female, Beagle, dog, in vivo, 2.5 mg) is 5 min; the time to peak (Tmax) in the data set “in vivo” (2.5 mg) is 10 min; the time to peak (Tmax) in “in vivo” is at most 5 min; the Tmax in data set [2] (dog, in vivo, po, 64 mg) is recorded as 120 min; the Tmax in data set [2] (dog, in vivo, po, 148 mg) is reported as 60 min. Moreover, the Tmax in data set [1] (setting [20]) was 2 min; in data set [1] (setting [21]) it was 30 min. Besides, the Cmax is given as 49 ng/mL in data set [1] (setting [20]) and 40 ng/mL in data set [1] (setting [21]).
As for `O=[N+]([O-])OCC(CO[N+](=O)[O-])O[N+](=O)[O-]` [Nitroglycerin], the Plasma concentration entry is, setting by setting: under setting [4], “<LLOQ”; under setting [5], “<LLOQ”; under setting [6], “<LLOQ”; under setting [7], “<LLOQ”; under setting [8], “<LLOQ”; (120 min after first vaginal dose, individual dogs) “<LLOQ”. The Plasma concentration result runs as follows: under setting [9], “<LLOQ”; under setting [10], “<LLOQ”; under setting [11], “<LLOQ”; (245 min after first dose (second vaginal dose at 125 min), individual dogs) “<LLOQ”; (Pre-dose, individual dogs) “<LLOQ”. Moreover, the “Parent compound concentration detectable in plasma” value (after vaginal administration of Nitroglycerin, Beagle dogs, listed as nitroglycerin) was “no detectable concentrations”.
With `CCN(CC)CC#CCOC(=O)C(O)(c1ccccc1)C1CCCCC1` (stereo not drawn) [Oxybutynin HCl], under “dog, in vivo”, the “Cmax / plasma concentration of one animal relative to the other animal” value was “more than 3 times”. Further, the “Elimination from the body” value (dog, in vivo) is “almost completely eliminated”. The Plasma concentration result (dog, in vivo) is given as “<LLOQ”. Further, the Tmax in “in vivo” is 10 min; in data set [2] (setting [22]), 90 min; in data set [2] (setting [23]), 90 min; in data set [2] (setting [24]) it was 180 min; in data set [1] (setting [25]), 1500 min; in data set [1] (setting [26]), 60 min. The results for the time of peak concentration (Tmax) in data set [1] (setting [27]) and in data set [1] (setting [28]) were 50 min and 1500 min, respectively. In addition, the Cmax in data set [2] (setting [22]) is recorded as 14.0 ng/mL; in data set [2] (setting [23]), 18.8 ng/mL; in data set [2] (setting [24]), 17.9 ng/mL; in data set [1] (setting [25]), 4.2 ng/mL; in data set [1] (setting [26]), 2.1 ng/mL; in data set [1] (setting [27]), 10.0 ng/mL. The Cmax in data set [1] (setting [28]) is 3.2 ng/mL.
Take `CC[C@H](C)[C@@H]1NC(=O)[C@H](Cc2ccc(O)cc2)NC(=O)[C@@H](N)CSSC[C@@H](C(=O)N2CCC[C@H]2C(=O)N[C@@H](CC(C)C)C(=O)NCC(N)=O)NC(=O)[C@H](CC(N)=O)NC(=O)[C@H](CCC(N)=O)NC1=O` [oxytocin]: the half life time result in data set [3] is recorded as “less than 6 minutes”.
